Results published in ChEMBL document CHEMBL1131794, “The synthesis and evaluation of 6-alkylidene-2'beta-substituted penam sulfones as beta-lactamase inhibitors” (Bioorg Med Chem Lett, 1999).

Legend:
[1] = target: T1, Beta-lactamase (Staphylococcus aureus, UniProt P00807); assay: Inhibitory activity against serine Beta-lactamase derived from Staphylococcus aureus
[2] = target: Beta-lactamase TEM (Escherichia coli, UniProt P62593); assay: Inhibitory activity against serine Beta-lactamase TEM derived from […]; assay type: single protein
[3] = target: T1, Beta-lactamase; assay: Inhibitory activity against serine beta-lactamase, PC1 (class A) derived from Staphylococcus aureus
[4] = system: Escherichia coli; assay: In vitro synergistic activity against Escherichia coli 300 + (ampR ampC); assay type: functional; further: test concentration or dose not given here
[5] = system: Escherichia coli; assay: In vitro synergistic activity against Escherichia coli ATCC 25922 (no beta-lactamase); assay type: functional; further: test concentration or dose not given here
[6] = system: Pseudomonas aeruginosa; assay: In vitro synergistic activity against Pseudomonas aeruginosa Ps505A1 (AmpC derepressed); assay type: functional
[7] = system: Escherichia coli; assay: In vitro synergistic activity against Escherichia coli C600N + (L1); assay type: functional
[8] = system: Escherichia coli; assay: In vitro synergistic activity against Escherichia coli C600N + (TEM-10); assay type: functional
[9] = system: Escherichia coli; assay: In vitro synergistic activity against Escherichia coli GC6267 clinical isolate; assay type: functional
[10] = system: Escherichia coli; assay: In vitro synergistic activity against Escherichia coli C600N + (MIR-1); assay type: functional
[11] = system: Escherichia coli; assay: In vitro synergistic activity against Escherichia coli C600N + (TEM-1); assay type: functional
[12] = system: Escherichia coli; assay: In vitro synergistic activity against Escherichia coli C600N + (Imi-1); assay type: functional
[13] = system: Escherichia coli; assay: In vitro synergistic activity against Escherichia coli C600N + (Sme-1); assay type: functional
[14] = system: Escherichia coli; assay: In vitro synergistic activity against Escherichia coli GC 6266 clinical isolate; assay type: functional
[15] = system: Enterobacter cloacae; assay: In vitro synergistic activity against Enterobacter cloacae (Imi-1+AmpC); assay type: functional
[16] = system: Escherichia coli; assay: In vitro synergistic activity against Escherichia coli 4100 + (CCRA); assay type: functional
[17] = system: Escherichia coli; assay: In vitro synergistic activity against Escherichia coli C600N (no beta-lactamase); assay type: functional
[18] = system: Klebsiella pneumoniae; assay: In vitro synergistic activity against Klebsiella pneumoniae GC 6269 clinical isolate; assay type: functional; further: test concentration or dose not given here
[19] = system: Escherichia coli; assay: In vitro synergistic activity against Escherichia coli C600N + (SHV-4); assay type: functional
[20] = system: Escherichia coli; assay: In vitro synergistic activity against Escherichia coli 300 + (TEM-1); assay type: functional
[21] = system: Enterobacter cloacae; assay: In vitro synergistic activity against Enterobacter cloacae SC12629 (AmpC inducible); assay type: functional; further: test concentration or dose not given here
[22] = system: Aeromonas sobria; assay: In vitro synergistic activity against Aeromonas sobria (Asb A, OXA-12, Asb M); assay type: functional; further: test concentration or dose not given here
[23] = system: Klebsiella pneumoniae; assay: In vitro synergistic activity against Klebsiella pneumoniae KC2 (TEM-10); assay type: functional
[24] = system: Escherichia coli; assay: In vitro synergistic activity against Escherichia coli C600N + (OXA-10) {PSE-2}; assay type: functional
[25] = system: Klebsiella aerogenes; assay: In vitro synergistic activity against Enterobacter aerogenes GC 6268 clinical isolate; assay type: functional; further: test concentration or dose not given here
[26] = system: Escherichia coli; assay: In vitro synergistic activity against Escherichia coli C600N + (PSE-1); assay type: functional
[27] = system: Escherichia coli; assay: In vitro synergistic activity against Escherichia coli GC6265 (TEM-1); assay type: functional
[28] = system: Escherichia coli; assay: In vitro synergistic activity against Escherichia coli C600N + (SHV-1); assay type: functional
[29] = system: Staphylococcus aureus; assay: In vitro synergistic activity against Staphylococcus aureus (PC1); assay type: functional; further: test concentration or dose not given here
[30] = system: Escherichia coli; assay: In vitro synergistic activity against Escherichia coli C600N + (P99); assay type: functional
[31] = system: Stenotrophomonas maltophilia; assay: In vitro synergistic activity against Stenotrophomonas maltophilia 1712(L1); assay type: functional; further: test concentration or dose not given here
[32] = system: Escherichia coli; assay: In vitro synergistic activity against Escherichia coli ATCC 35218 (TEM-1); assay type: functional
[33] = system: Escherichia coli; assay: In vitro synergistic activity against Escherichia coli C600N + (ampR ampC); assay type: functional; further: test concentration or dose not given here
[34] = system: Klebsiella pneumoniae; assay: In vitro synergistic activity against Klebsiella pneumoniae (ACT-1 + 3 blas, IPM=S); assay type: functional; further: test concentration or dose not given here
[35] = system: Serratia marcescens; assay: In vitro synergistic activity against Serratia marcescens GC 4132 (Amp C); assay type: functional; further: test concentration or dose not given here
[36] = system: Escherichia coli; assay: In vitro synergistic activity against Escherichia coli C600N + (IRT-2); assay type: functional; further: test concentration or dose not given here
[37] = system: Escherichia coli; assay: In vitro synergistic activity against Escherichia coli 4100 (no beta-lactamase); assay type: functional
[38] = system: Escherichia coli; assay: In vitro synergistic activity against Escherichia coli 300 (no beta-lactamase, imp mutant); assay type: functional

Chain of Beta-lactamase TEM (P62593 whole entry): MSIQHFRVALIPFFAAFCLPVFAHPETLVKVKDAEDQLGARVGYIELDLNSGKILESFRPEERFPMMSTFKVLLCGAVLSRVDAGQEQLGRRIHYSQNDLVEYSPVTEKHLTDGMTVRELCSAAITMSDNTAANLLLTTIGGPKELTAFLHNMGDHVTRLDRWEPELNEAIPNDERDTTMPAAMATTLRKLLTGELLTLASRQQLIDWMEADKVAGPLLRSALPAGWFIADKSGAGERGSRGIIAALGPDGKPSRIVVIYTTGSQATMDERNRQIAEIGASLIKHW
T1 sequence (P00807 whole entry): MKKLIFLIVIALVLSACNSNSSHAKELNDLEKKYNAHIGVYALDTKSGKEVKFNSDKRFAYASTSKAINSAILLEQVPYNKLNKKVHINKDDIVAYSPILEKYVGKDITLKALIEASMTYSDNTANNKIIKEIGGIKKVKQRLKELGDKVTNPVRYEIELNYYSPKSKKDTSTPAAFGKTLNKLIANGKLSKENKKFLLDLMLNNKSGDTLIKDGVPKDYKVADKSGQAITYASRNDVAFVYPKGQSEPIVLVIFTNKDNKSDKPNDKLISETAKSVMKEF

Compound	IC50 [1]	IC50 [2]	IC50 [3]	MIC [4]	MIC [5]	MIC [6]	MIC [7]	MIC [9]	MIC [10]	MIC [12]	MIC [13]	MIC [14]	MIC [15]	MIC [16]	MIC [18]	MIC [20]	MIC [21]	MIC [22]	MIC [23]	MIC [25]	further results
C[C@]1(COC(=O)Cc2ccccc2)[C@H](C(=O)O)N2C(=O)/C(=C/C(=O)O)C2S1(=O)=O (stereo partly drawn)	540 nM	15.4 nM	579000 nM																		
COC(=O)/C=C1/C(=O)N2C1S(=O)(=O)[C@@](C)(CCl)[C@@H]2C(=O)O (stereo partly drawn)	13900 nM		432000 nM																		
Cn1nnnc1SCC(=O)OC[C@@]1(C)[C@H](C(=O)O)N2C(=O)/C(=C/C(=O)O)C2S1(=O)=O (stereo partly drawn)	640 nM	233 nM																			
CC(=O)OC[C@@]1(C)[C@H](C(=O)O)N2C(=O)/C(=C/c3ccccn3)C2S1(=O)=O (stereo partly drawn)	62 nM	4 nM	660 nM																		
C[C@]1(COC(=O)Cc2ccccc2)[C@H](C(=O)O)N2C(=O)/C(=C/c3ccccn3)C2S1(=O)=O (stereo partly drawn)	1 nM	40 nM	390 nM																		
CCN1CCN(C(=O)NC(C(=O)N[C@@H]2C(=O)N3[C@@H]2SC(C)(C)[C@@H]3C(=O)[O-])c2ccccc2)C(=O)C1=O.C[C@]1(Cn2ccnn2)C(C(=O)[O-])N2C(=O)C[C@H]2S1(=O)=O.[Na+].[Na+] (stereo partly drawn)				4 µg/mL	2 µg/mL	16 µg/mL	> 64 µg/mL	16 µg/mL	8 µg/mL	16 µg/mL	8 µg/mL	16 µg/mL	16 µg/mL	> 64 µg/mL	8 µg/mL	4 µg/mL	> 64 µg/mL	64 µg/mL	2 µg/mL	32 µg/mL	MIC [8]: 2 µg/mL; MIC [11]: 4 µg/mL; MIC [17]: 2 µg/mL; MIC [19]: 2 µg/mL; MIC [24]: 2 µg/mL; MIC [26]: 1 µg/mL; MIC [27]: 4 µg/mL; MIC [28]: 2 µg/mL; MIC [29]: 1 µg/mL; MIC [30]: 8 µg/mL; MIC [31]: > 64 µg/mL; MIC [32]: 1 µg/mL; MIC [33]: 8 µg/mL; MIC [34]: 32 µg/mL; MIC [35]: 32 µg/mL; MIC [36]: 8 µg/mL; MIC [37]: < 0.06 µg/mL
C[C@]1(COC(=O)Cc2ccc(O)c(O)c2)[C@H](C(=O)[O-])N2C(=O)/C(=C/c3ccccn3)C2S1(=O)=O.[Na+] (stereo partly drawn)	26 nM	60 nM	700 nM	> 64 µg/mL	> 64 µg/mL	> 64 µg/mL	> 64 µg/mL	> 64 µg/mL	> 64 µg/mL	> 64 µg/mL	> 64 µg/mL	> 64 µg/mL	> 64 µg/mL	> 64 µg/mL	> 64 µg/mL	> 64 µg/mL	> 64 µg/mL	> 64 µg/mL	> 64 µg/mL	> 64 µg/mL	MIC [26]: > 64 µg/mL; MIC [27]: > 64 µg/mL; MIC [29]: > 64 µg/mL; MIC [30]: > 64 µg/mL; MIC [31]: > 64 µg/mL; MIC [32]: > 64 µg/mL; MIC [33]: > 64 µg/mL; MIC [34]: > 64 µg/mL; MIC [35]: > 64 µg/mL; MIC [36]: > 64 µg/mL; MIC [37]: > 64 µg/mL
CC(=O)OC[C@@]1(C)[C@H](C(=O)O)N2C(=O)/C(=C/C(N)=O)C2S1(=O)=O (stereo partly drawn)	8480 nM	310 nM	2210 nM																		
C[C@]1(COC(=O)Cc2ccc(O)c(O)c2)[C@H](C(=O)O)N2C(=O)/C(=C/C(=O)O)C2S1(=O)=O (stereo partly drawn)	370 nM		116000 nM																		
CCN1CCN(C(=O)NC(C(=O)N[C@@H]2C(=O)N3[C@@H]2SC(C)(C)[C@@H]3C(=O)[O-])c2ccccc2)C(=O)C1=O.C[C@]1(COC(=O)Cc2ccc(O)c(O)c2)[C@H](C(=O)[O-])N2C(=O)/C(=C/c3ccccn3)C2S1(=O)=O.[Na+].[Na+] (stereo partly drawn)				2 µg/mL	1 µg/mL	2 µg/mL	64 µg/mL	16 µg/mL	8 µg/mL	8 µg/mL	8 µg/mL	16 µg/mL	16 µg/mL	> 64 µg/mL	8 µg/mL	1 µg/mL	64 µg/mL	1 µg/mL	4 µg/mL	64 µg/mL	MIC [8]: 2 µg/mL; MIC [11]: 2 µg/mL; MIC [17]: 1 µg/mL; MIC [38]: < 0.006 µg/mL; MIC [19]: 2 µg/mL; MIC [24]: 2 µg/mL; MIC [26]: 2 µg/mL; MIC [27]: 4 µg/mL; MIC [28]: 2 µg/mL; MIC [29]: 1 µg/mL; MIC [30]: 16 µg/mL; MIC [31]: > 64 µg/mL; MIC [32]: 1 µg/mL; MIC [33]: 16 µg/mL; MIC [34]: 32 µg/mL; MIC [35]: 4 µg/mL; MIC [36]: 2 µg/mL; MIC [37]: < 0.06 µg/mL
